Test results published in patent publication US20230085307A1, “PYRIDAZINONE COMPOUND AND HERBICIDE” (NISSAN CHEMICAL CORPORATION, priority 2019, published 2023).

Assays:
[1] = tested on: barnyard grass; experiment: Test Example 4: herbicidal effect by soil treatment (Table 19, symbol H); assay type: in vivo, barnyard grass (Echinochloa crus-galli); conditions: amount of applied herbicide 320 g/ha
Outline: (§1)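 Pre-emergence style soil spray: seeds under ~1.5 cm sterilized diluvial soil received a uniform coat of emulsion diluted to the predetermined herbicide amount. Greenhouse 25–30° C; readout at week three on previously defined criteria.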

[2] = tested on: lambsquarters; experiment: Test Example 4: herbicidal effect by soil treatment (Table 19, symbol O); assay type: in vivo, lambsquarters (Chenopodium album); conditions: amount of applied herbicide 320 g/ha
Outline: as §1

[3] = tested on: green foxtail; experiment: Test Example 5: herbicidal effect by foliage application, plastic box (Table 20, symbol G); assay type: in vivo, green foxtail (Setaria viridis); conditions: foliage application, AAH 320 g/ha, evaluated three weeks after application
Outline: (§2)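 Plants were sown into sterilized diluvial soil under about 1.5 cm cover and kept in a greenhouse at 25° C. to 30° C. Fourteen days on, foliage received an even spray of the diluted emulsion. Herbicidal or crop effect was judged three weeks afterwards.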

[4] = tested on: chickweed; experiment: Test Example 5: herbicidal effect by foliage application, plastic box (Table 20, symbol P); assay type: in vivo, common chickweed (Stellaria media); conditions: foliage application, AAH 320 g/ha, evaluated three weeks after application
Outline: as §2

[5] = tested on: blackgrass; experiment: Test Example 5: herbicidal effect by foliage application, plastic box (Table 20, symbol J); assay type: in vivo, blackgrass (Alopecurus myosuroides); conditions: foliage application, AAH 320 g/ha, evaluated three weeks after application
Outline: as §2

[6] = tested on: wild oat; experiment: Test Example 4: herbicidal effect by soil treatment (Table 19, symbol I); assay type: in vivo, wild oat (Avena fatua); conditions: amount of applied herbicide 320 g/ha
Outline: as §1

[7] = tested on: Japanese bulrush; experiment: Test Example 2: herbicidal activity, application during weed generation under submerged conditions (Table 17, symbol B); assay type: in vivo, Japanese bulrush (Schoenoplectus juncoides); conditions: AAH 320 g/ha; application during weed generation, submerged conditions
Outline: (§3)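 Herbicide emulsion, diluted with water to the chosen amount, is applied onto 4 cm floodwater over alluvial soil where the weeds were co-sown and raised at 25–30° C. Application timing: 1–2 leaves. Assessment: three weeks afterwards.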

[8] = tested on: late watergrass; experiment: Test Example 2: herbicidal activity, application during weed generation under submerged conditions (Table 17, symbol A); assay type: in vivo, late watergrass (Echinochloa oryzicola); conditions: AAH 320 g/ha; application during weed generation, submerged conditions
Outline: as §3

[9] = tested on: velvetleaf; experiment: Test Example 4: herbicidal effect by soil treatment (Table 19, symbol M); assay type: in vivo, velvetleaf (Abutilon theophrasti); conditions: amount of applied herbicide 320 g/ha
Outline: as §1

[10] = tested on: redroot pigweed; experiment: Test Example 5: herbicidal effect by foliage application, plastic box (Table 20, symbol N); assay type: in vivo, redroot pigweed (Amaranthus retroflexus); conditions: foliage application, AAH 320 g/ha, evaluated three weeks after application
Outline: as §2

[11] = tested on: wild oat; experiment: Test Example 5: herbicidal effect by foliage application, plastic box (Table 20, symbol I); assay type: in vivo, wild oat (Avena fatua); conditions: foliage application, AAH 320 g/ha, evaluated three weeks after application
Outline: as §2

[12] = tested on: barnyard grass; experiment: Test Example 3: herbicidal effect by foliage application, Wagner pot (Table 18, symbol H); assay type: in vivo, barnyard grass (Echinochloa crus-galli); conditions: amount of applied herbicide 320 g/ha
Outline: (§4)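 Plants were sown in alluvial soil held under 0.1–0.5 cm standing water and grown 14 days in a greenhouse at 25–30 °C. An emulsifiable formulation, water-diluted to the set dose, was then sprayed onto the foliage, and effects were scored three weeks later using previously defined criteria.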

[13] = tested on: Italian ryegrass; experiment: Test Example 4: herbicidal effect by soil treatment (Table 19, symbol K); assay type: in vivo, Italian ryegrass (Lolium multiflorum); conditions: amount of applied herbicide 320 g/ha
Outline: as §1

[14] = tested on: Italian ryegrass; experiment: Test Example 5: herbicidal effect by foliage application, plastic box (Table 20, symbol K); assay type: in vivo, Italian ryegrass (Lolium multiflorum); conditions: foliage application, AAH 320 g/ha, evaluated three weeks after application
Outline: as §2

[15] = tested on: velvetleaf; experiment: Test Example 5: herbicidal effect by foliage application, plastic box (Table 20, symbol M); assay type: in vivo, velvetleaf (Abutilon theophrasti); conditions: foliage application, AAH 320 g/ha, evaluated three weeks after application
Outline: as §2

[16] = tested on: persian speedwell; experiment: Test Example 5: herbicidal effect by foliage application, plastic box (Table 20, symbol R); assay type: in vivo, Persian speedwell (Veronica persica); conditions: foliage application, AAH 320 g/ha, evaluated three weeks after application
Outline: as §2

[17] = tested on: redroot pigweed; experiment: Test Example 4: herbicidal effect by soil treatment (Table 19, symbol N); assay type: in vivo, redroot pigweed (Amaranthus retroflexus); conditions: amount of applied herbicide 320 g/ha
Outline: as §1

[18] = tested on: green foxtail; experiment: Test Example 4: herbicidal effect by soil treatment (Table 19, symbol G); assay type: in vivo, green foxtail (Setaria viridis); conditions: amount of applied herbicide 320 g/ha
Outline: as §1

[19] = tested on: chickweed; experiment: Test Example 4: herbicidal effect by soil treatment (Table 19, symbol P); assay type: in vivo, common chickweed (Stellaria media); conditions: amount of applied herbicide 320 g/ha
Outline: as §1

[20] = tested on: southern crabgrass; experiment: Test Example 4: herbicidal effect by soil treatment (Table 19, symbol F); assay type: in vivo, southern crabgrass (Digitaria ciliaris); conditions: amount of applied herbicide 320 g/ha
Outline: as §1

[21] = tested on: windgrass; experiment: Test Example 5: herbicidal effect by foliage application, plastic box (Table 20, symbol L); assay type: in vivo, windgrass (Apera spica-venti); conditions: foliage application, AAH 320 g/ha, evaluated three weeks after application
Outline: as §2

[22] = tested on: rice flat sedge; experiment: Test Example 3: herbicidal effect by foliage application, Wagner pot (Table 18, symbol E); assay type: in vivo, rice flat sedge (Cyperus iria); conditions: amount of applied herbicide 320 g/ha
Outline: as §4

In the case of `Cc1nn(C)c(=O)c(-c2c(-c3ccc(OC(F)F)cc3)sc3ccc(F)cc23)c1OC(=O)c1cccs1` [2-288], the “herbicidal effect on H: barnyard grass” value [1] is reported as 2 (Herbicidal rate of 20% or more and less than 40%), the “herbicidal effect on O: lambsquarters” value [2] is reported as 4 (Herbicidal rate of 70% or more and less than 90%) and the “G: green foxtail, herbicidal effect (criteria 0-5)” value [3] is reported as 5 (Herbicidal rate of 90% or more (almost completely withered)). For the same compound, the “P: chickweed, herbicidal effect (criteria 0-5)” value [4] was 5 (Herbicidal rate of 90% or more (almost completely withered)), the “J: blackgrass, herbicidal effect (criteria 0-5)” value [5] was 4 (Herbicidal rate of 70% or more and less than 90%) and the “herbicidal effect on I: wild oat” value [6] was 0 (Herbicidal rate of 5% or less (almost no effect)). The “herbicidal effect rating, B: Japanese bulrush” value [7] was 3 (Herbicidal rate of 40% or more and less than 70%), the “herbicidal effect rating, A: late watergrass” value [8] was 3 (Herbicidal rate of 40% or more and less than 70%) and the “herbicidal effect on M: velvetleaf” value [9] was 3 (Herbicidal rate of 40% or more and less than 70%). For the same compound, the “N: redroot pigweed, herbicidal effect (criteria 0-5)” value [10] was 5 (Herbicidal rate of 90% or more (almost completely withered)), the “I: wild oat, herbicidal effect (criteria 0-5)” value [11] was 1 (Herbicidal rate of 5% or more and less than 20%) and the “herbicidal effect on H: barnyard grass” value [12] was 5 (Herbicidal rate of 90% or more (almost completely withered)). The “herbicidal effect on K: Italian ryegrass” value [13] was 4 (Herbicidal rate of 70% or more and less than 90%), the “K: Italian ryegrass, herbicidal effect (criteria 0-5)” value [14] was 5 (Herbicidal rate of 90% or more (almost completely withered)) and the “M: velvetleaf, herbicidal effect (criteria 0-5)” value [15] was 5 (Herbicidal rate of 90% or more (almost completely withered)). The “R: persian speedwell, herbicidal effect (criteria 0-5)” value [16] was 5 (Herbicidal rate of 90% or more (almost completely withered)), the “herbicidal effect on N: redroot pigweed” value [17] was 4 (Herbicidal rate of 70% or more and less than 90%) and the “herbicidal effect on G: green foxtail” value [18] was 4 (Herbicidal rate of 70% or more and less than 90%). For the same compound, the “herbicidal effect on P: chickweed” value [19] was 4 (Herbicidal rate of 70% or more and less than 90%), the “herbicidal effect on F: southern crabgrass” value [20] was 3 (Herbicidal rate of 40% or more and less than 70%) and the “L: windgrass, herbicidal effect (criteria 0-5)” value [21] was 3 (Herbicidal rate of 40% or more and less than 70%). For the same compound, the “herbicidal effect on E: rice flat sedge” value [22] was 5 (Herbicidal rate of 90% or more (almost completely withered)).
